From ChEMBL document CHEMBL1138438, “Structural-activity relationship study of highly-functionalized imidazolines as potent inhibitors of nuclear transcription factor-kappaB mediated IL-6 production” (Bioorg Med Chem, 2009)
The source made the active and inactive calls. The rule behind the calls is not given here.

How the values were obtained:
[1] = system: HeLa; assay: Cell cycle arrest in TNF-alpha-stimulated human HeLa cells transfected with NFkappaB-Luc assessed as accumulation at G2/G1 phase at 0.05 uM after 8 hrs by using propidium iodide staining by FACS analysis; assay type: functional
[2] = system: HeLa; assay: Cell cycle arrest in TNF-alpha-stimulated human HeLa cells transfected with NFkappaB-Luc assessed as accumulation at diploid G1 phase at 20 uM after 8 hrs by using propidium iodide staining by FACS analysis; assay type: functional
[3] = system: HeLa; assay: Cell cycle arrest in human HeLa cells transfected with NFkappaB-Luc assessed as accumulation at diploid G1 phase at 20 uM after 8 hrs by using propidium iodide staining by FACS analysis; assay type: functional
[4] = system: HeLa; assay: Effect on cell cycle arrest in TNF-alpha-stimulated human HeLa cells transfected with NFkappaB-Luc assessed as cell debris level at 0.1 uM after 8 hrs by using propidium iodide staining by FACS analysis; assay type: functional
[5] = system: HeLa; assay: Cell cycle arrest in TNF-alpha-stimulated human HeLa cells transfected with NFkappaB-Luc assessed as accumulation at total S phase at 0.1 uM after 8 hrs by using propidium iodide staining by FACS analysis; assay type: functional
[6] = system: HeLa; assay: Cell cycle arrest in TNF-alpha-stimulated human HeLa cells transfected with NFkappaB-Luc assessed as accumulation at diploid G2 phase at 20 uM after 8 hrs by using propidium iodide staining by FACS analysis; assay type: functional
[7] = Inhibition of NF-kappaB-mediated gene transcription expressed in TNF-alpha-stimulated human HeLa cells co-transfected with renilla luciferase-TK gene preincubated for 30 mins before TNFalpha challenge measured after 8 hrs by dual-glo luciferase reporter gene assay; assay type: cell-based
[8] = system: HeLa; assay: Stimulation of NF-kappaB-mediated gene transcription expressed in human HeLa cells for 30 mins before TNFalpha challenge measured after 8 hrs by steady-glo luciferase reporter gene assay; assay type: cell-based
[9] = system: HeLa; assay: Cell cycle arrest in human HeLa cells transfected with NFkappaB-Luc assessed as accumulation at diploid stage at 20 uM after 8 hrs by using propidium iodide staining by FACS analysis; assay type: functional
[10] = system: HeLa; assay: Cell cycle arrest in human HeLa cells transfected with NFkappaB-Luc assessed as accumulation at total S phase at 20 uM after 8 hrs by using propidium iodide staining by FACS analysis; assay type: functional
[11] = system: HeLa; assay: Cell cycle arrest in TNF-alpha-stimulated human HeLa cells transfected with NFkappaB-Luc assessed as accumulation at diploid S phase at 0.05 uM after 8 hrs by using propidium iodide staining by FACS analysis; assay type: functional
[12] = system: HeLa; assay: Cell cycle arrest in TNF-alpha-stimulated human HeLa cells transfected with NFkappaB-Luc assessed as accumulation at diploid G2 phase at 10 uM after 8 hrs by using propidium iodide staining by FACS analysis; assay type: functional
[13] = system: HeLa; assay: Cell cycle arrest in TNF-alpha-stimulated human HeLa cells transfected with NFkappaB-Luc assessed as accumulation at G2/G1 phase at 10 uM after 8 hrs by using propidium iodide staining by FACS analysis; assay type: functional
[14] = system: HeLa; assay: Effect on cell cycle arrest in TNF-alpha-stimulated human HeLa cells transfected with NFkappaB-Luc assessed as total background cell aggregate and debris level at 5 uM after 8 hrs by using propidium iodide staining by FACS analysis; assay type: functional
[15] = Cytotoxicity against IL-1-beta-stimulated human whole blood lymphocytes assessed as survival cell count in millions at 3 uM after 24 hrs by trypan blue staining-based hemocytometry
[16] = system: HeLa; assay: Effect on cell cycle arrest in TNF-alpha-stimulated human HeLa cells transfected with NFkappaB-Luc assessed as total background cell aggregate and debris level at 0.5 uM after 8 hrs by using propidium iodide staining by FACS analysis; assay type: functional
[17] = system: HeLa; assay: Effect on cell cycle arrest in TNF-alpha-stimulated human HeLa cells transfected with NFkappaB-Luc assessed as cell debris level at 1 uM after 8 hrs by using propidium iodide staining by FACS analysis; assay type: functional
[18] = system: HeLa; assay: Effect on cell cycle arrest in TNF-alpha-stimulated human HeLa cells transfected with NFkappaB-Luc assessed as cell debris level at 5 uM after 8 hrs by using propidium iodide staining by FACS analysis; assay type: functional
[19] = system: HeLa; assay: Cell cycle arrest in TNF-alpha-stimulated human HeLa cells transfected with NFkappaB-Luc assessed as accumulation at total S phase at 0.05 uM after 8 hrs by using propidium iodide staining by FACS analysis; assay type: functional
[20] = system: HeLa; assay: Cell cycle arrest in human HeLa cells transfected with NFkappaB-Luc assessed as accumulation at diploid S phase at 20 uM after 8 hrs by using propidium iodide staining by FACS analysis; assay type: functional
[21] = system: HeLa; assay: Cell cycle arrest in TNF-alpha-stimulated human HeLa cells transfected with NFkappaB-Luc assessed as accumulation at total S phase at 1 uM after 8 hrs by using propidium iodide staining by FACS analysis; assay type: functional
[22] = system: HeLa; assay: Cell cycle arrest in TNF-alpha-stimulated human HeLa cells transfected with NFkappaB-Luc assessed as accumulation at diploid G1 phase at 0.1 uM after 8 hrs by using propidium iodide staining by FACS analysis; assay type: functional
[23] = system: HeLa; assay: Effect on cell cycle arrest in TNF-alpha-stimulated human HeLa cells transfected with NFkappaB-Luc assessed as cell debris level at 20 uM after 8 hrs by using propidium iodide staining by FACS analysis; assay type: functional
[24] = system: HeLa; assay: Cell cycle arrest in TNF-alpha-stimulated human HeLa cells transfected with NFkappaB-Luc assessed as accumulation at diploid G1 phase at 5 uM after 8 hrs by using propidium iodide staining by FACS analysis; assay type: functional
[25] = system: HeLa; assay: Cell cycle arrest in TNF-alpha-stimulated human HeLa cells transfected with NFkappaB-Luc assessed as accumulation at diploid G2 phase at 0.05 uM after 8 hrs by using propidium iodide staining by FACS analysis; assay type: functional
[26] = system: HeLa; assay: Cell cycle arrest in TNF-alpha-stimulated human HeLa cells transfected with NFkappaB-Luc assessed as accumulation at diploid S phase at 0.1 uM after 8 hrs by using propidium iodide staining by FACS analysis; assay type: functional
[27] = system: HeLa; assay: Effect on cell cycle arrest in TNF-alpha-stimulated human HeLa cells transfected with NFkappaB-Luc assessed as total background cell aggregate and debris level at 10 uM after 8 hrs by using propidium iodide staining by FACS analysis; assay type: functional
[28] = system: HeLa; assay: Cell cycle arrest in TNF-alpha-stimulated human HeLa cells transfected with NFkappaB-Luc assessed as accumulation at G2/G1 phase at 5 uM after 8 hrs by using propidium iodide staining by FACS analysis; assay type: functional
[29] = system: HeLa; assay: Cell cycle arrest in TNF-alpha-stimulated human HeLa cells transfected with NFkappaB-Luc assessed as accumulation at diploid G2 phase at 5 uM after 8 hrs by using propidium iodide staining by FACS analysis; assay type: functional
[30] = system: HeLa; assay: Cell cycle arrest in human HeLa cells transfected with NFkappaB-Luc assessed as accumulation at diploid G2 phase at 20 uM after 8 hrs by using propidium iodide staining by FACS analysis; assay type: functional
[31] = system: HeLa; assay: Effect on cell cycle arrest in TNF-alpha-stimulated human HeLa cells transfected with NFkappaB-Luc assessed as cell aggregate level at 0.05 uM after 8 hrs by using propidium iodide staining by FACS analysis; assay type: functional
[32] = system: HeLa; assay: Effect on cell cycle arrest in TNF-alpha-stimulated human HeLa cells transfected with NFkappaB-Luc assessed as cell debris level at 10 uM after 8 hrs by using propidium iodide staining by FACS analysis; assay type: functional

Work on `CCOC(=O)[C@]1(c2ccccc2)N=C(c2ccccc2)N(Cc2ccccc2)[C@@H]1c1ccccc1` (racemic) yielded an Activity [1] of 1.91%, an Activity [2] of 65.96% and an Activity [3] of 65.19%. The Activity [4] was 2%, the Activity [5] was 21.47% and the Activity [6] was 14.75%. For the same compound, the EC50 [7] was 4.67 µM, the Activity [8] was “inactive” and the Activity [9] was 100%. It also gave an Activity [10] of 21.48%, an Activity [11] of 22.8% and an Activity [12] of 15.01%. It also gave an Activity [13] of 1.91%, an Activity [14] of 1.14% and an Activity [15] of 1.06 mL⁻¹. For the same compound, the Activity [16] was 1.29%, the Activity [17] was 4.88% and the Activity [18] was 2.7%. For the same compound, the Activity [19] was 22.8%, the Activity [20] was 21.48% and the Activity [21] was 22.9%. For the same compound, the Activity [22] was 64.5%, the Activity [23] was 14.57% and the Activity [24] was 66.37%. For the same compound, the Activity [25] was 12.9%, the Activity [26] was 21.47% and the Activity [27] was 6.27%. For the same compound, the Activity [28] was 1.91%, the Activity [29] was 13.84% and the Activity [30] was 13.33%. It also gave an Activity [31] of 0% and an Activity [32] of 15.28%.
